Data set [1] is described as follows: Cytotoxicity against african green monkey Vero cells. The note with it: chlorocebus sabaeus. It counts as cell-based.
The nature of data set [2]: Antiviral activity against HSV1 SC16 infected in african green monkey Vero cells by hybrid capture method. Format: functional, cell-based, Herpes simplex virus (type 1 / strain SC16). The note with it: Human alphaherpesvirus 1, Vero.
Data set [3] is described as follows: Oral bioavailability in Sprague-Dawley rat at 1 mg/kg. It counts as ADME, organism-based. The note with it: in vivo.
Data set [4] can be described thus: Cmax in Sprague-Dawley rat at 1 mg/kg, iv and po after 30 mins. Format: ADME, organism-based. Details: dose 1 mg/kg, route oral. The note with it: in vivo.
For data set [5], the system named is Rattus norvegicus. In words: Volume of distribution in Sprague-Dawley rat at 1 mg/kg, iv and po. Format: ADME, organism-based. Details: dose 1 mg/kg, route oral. The note with it: in vivo.
The nature of data set [6]: Half life in Sprague-Dawley rat at 1 mg/kg, iv and po. It counts as ADME, organism-based. Set-up: dose 1 mg/kg, route oral. The note with it: in vivo.

SMILES strings stand for the structures. A value given as a limit tells only on which side of the number the result lay.

`c1ccc(-c2nn3c(NC4CCCC4)ccnc3c2-c2ccnc(NC3CCCC3)c2)cc1`: in data set [1], half-maximal cytotoxicity (CC50) was put at 14000 nM. The concentration for half-maximal inhibition (IC50) (as a rule, the point on the concentration scale where inhibition reaches its midpoint) in data set [2] stood at 300 nM.
The matching figures for `COCCOc1ccc(-c2nn3c(NC4CCCC4)nccc3c2-c2ccnc(NC3CCCC3)n2)cc1`: over 40000 nM and 1120 nM.
Regarding `CCCOc1ccc(-c2nn3c(NC4CCCC4)nccc3c2-c2ccnc(NC3CCCC3)n2)cc1`, the CC50 (usually the concentration giving 50% cytotoxicity) in data set [1] is over 20000 nM. The compound also gave a concentration for half-maximal inhibition (IC50) in data set [2] of 540 nM.
The matching figures for `Clc1cccc(-c2nn3c(NC4CCCC4)nccc3c2-c2ccnc(NC3CCCC3)n2)c1`: over 40000 nM and 460 nM.
The matching figures for `COCCNc1nccc2c(-c3ccnc(NC4CCCC4)n3)c(-c3cccc(Cl)c3)nn12`: over 40000 nM and 300 nM.
In turn, `COc1ccc(-c2nn3c(NC4CCCC4)ccnc3c2-c2ccnc(NC3CCCC3)c2)cc1` showed a cytotoxic concentration (CC50) in data set [1] of 10000 nM. In data set [2], this compound registered a concentration for half-maximal inhibition (IC50) of 600 nM.
The matching figures for `Fc1ccc(-c2nn3c(N4CCCC4)nccc3c2-c2ccnc(NC3CCCC3)n2)cc1`: over 40000 nM and 1900 nM.
The matching figures for `Fc1ccc(-c2nn3c(NC4CCCC4)ccnc3c2-c2ccnc(NC3CCCC3)c2)cc1`: 16000 nM and 1200 nM.
The matching figures for `Fc1ccc(-c2nn3c(NC4CCCC4)cc(NC4CCCC4)cc3c2-c2ccnc(NC3CCCC3)n2)cc1`: over 40000 nM and 240 nM.
In data set [1], `CC(C)COc1ccc(-c2nn3c(NC4CCCC4)nccc3c2-c2ccnc(NC3CCCC3)n2)cc1` returned a half-maximal cytotoxic concentration (CC50) of over 40000 nM. The same compound showed an IC50 in data set [2] of 610 nM.
The matching figures for `Oc1ccc(-c2nn3c(NC4CCCC4)nccc3c2-c2ccnc(NC3CCCC3)n2)cc1`: 27000 nM and 4000 nM.
`c1ccc(-c2nn3c(NC4CCCC4)cccc3c2-c2ccnc(NC3CCCC3)n2)cc1` gave a CC50 in data set [1] of over 40000 nM. In addition, the IC50 in data set [2] turned out to be 620 nM.
The compound `Clc1cccc(-c2nn3c(N4CCOCC4)nccc3c2-c2ccnc(NC3CCCC3)n2)c1` registered a CC50 in data set [1] of over 40000 nM. In data set [2], this compound returned an IC50 of 200 nM.
The matching figures for `c1cc(-c2c(-c3ccc(OCC4CC4)cc3)nn3c(NC4CCCC4)nccc23)nc(NC2CCCC2)n1`: over 40000 nM and 690 nM.
The matching figures for `COc1ccc(-c2nn3c(NC4CCCC4)ccnc3c2-c2ccnc(NC3CCCC3)n2)cc1`: 32000 nM and 2400 nM.
In the case of `Fc1ccc(-c2nn3c(NC4CCCC4)nccc3c2-c2ccnc(NC3CCCC3)n2)cc1`, the CC50 in data set [1] was over 40000 nM. In addition, the bioavailability (in general, the share of a dose that reaches the circulation, judged against a reference dose that is usually intravenous) in data set [3] is 24%. Besides, the maximum concentration (Cmax) (in general, the peak of the concentration-time curve) in data set [4] turned out to be 300 nM. Besides, the Vd in data set [5] amounted to 1.2 L/kg. Besides, the half-life (usually the time needed for the level to fall by half in the phase considered) in data set [6] is 2.5 h. Also, in data set [2], the IC50 came out at 170 nM.
With `c1ccc(-c2nn3c(NC4CCCC4)ncnc3c2-c2ccnc(NC3CCCC3)n2)cc1`, in data set [1], the CC50 is over 40000 nM. In data set [2], this compound came in with a half-maximal inhibitory concentration (IC50) of 6400 nM.
The matching figures for `Fc1ccc(-c2nn3c(N4CCCCC4)nccc3c2-c2ccnc(NC3CCCC3)n2)cc1`: over 40000 nM and 980 nM.
As to `c1ccc(-c2nn3c(NC4CCCC4)nc(NC4CCCC4)nc3c2-c2ccnc(NC3CCCC3)c2)cc1`, in data set [1], the 50% cytotoxic concentration (CC50) was over 40000 nM. In data set [2], this compound yielded an IC50 of 120 nM.
The matching figures for `Fc1ccc(-c2nn3c(NC4CCCC4)cccc3c2-c2ccnc(NC3CCCC3)n2)cc1`: over 160000 nM and 260 nM.
The matching figures for `CC(C)(C)Nc1nccc2c(-c3ccnc(NC4CCCC4)n3)c(-c3ccc(F)cc3)nn12`: over 40000 nM and 6610 nM.
The matching figures for `COc1ccc(-c2nn3c(NC4CCCC4)cccc3c2-c2ccnc(NC3CCCC3)n2)cc1`: over 100000 nM and 220 nM.
In turn, `CCCCOc1ccc(-c2nn3c(NC4CCCC4)nccc3c2-c2ccnc(NC3CCCC3)n2)cc1` returned a CC50 in data set [1] of over 40000 nM. Moreover, it took 470 nM to reach half-maximal inhibition in data set [2] (IC50).
The matching figures for `Nc1nc2c(ncn2COCCO)c(=O)[nH]1` [ACYCLOVIR]: over 200000 nM and 390 nM.
In turn, `c1cc(NC2CCCC2)n2nc(-c3ccc(OCC4CC4)cc3)c(-c3ccnc(NC4CCCC4)n3)c2c1` yielded a half-maximal cytotoxic concentration (CC50) in data set [1] of over 40000 nM. In addition, in data set [2], the midpoint of inhibition, the IC50, lay at 170 nM.
The matching figures for `COc1ccc(-c2nn3c(NC4CCCC4)nccc3c2-c2ccnc(NC3CCCC3)n2)cc1`: over 40000 nM and 280 nM.

For the origin of these results see ChEMBL document CHEMBL1156004, “Pyrazolopyrimidines and pyrazolotriazines with potent activity against herpesviruses” (Bioorg Med Chem Lett, 2009).
